This is an account of results in ChEMBL document CHEMBL4402546, “Urea Derivatives in Modern Drug Discovery and Medicinal Chemistry” (J Med Chem, 2020).

Structures are written as SMILES. pIC50: −log10 of the molar value.

One data set deals with HT-29. Briefly: Antiproliferative activity against human HT-29 cells after 72 hrs by CCK8 assay. The format is functional, cell-based. The settings on record: HT-29, 72 h. In general terms: Tetrazolium dyes change colour on reduction, which living cells bring about.
For the next data set, the system named is LoVo. Briefly: Antiproliferative activity against human LoVo cells after 72 hrs by CCK8 assay. The data set is classed as functional, cell-based.
Data set [1] addresses Serine/threonine-protein kinase B-raf (Homo sapiens, UniProt P15056, V600E). Briefly: Inhibition of BRAF V600E mutant (unknown origin).
For data set [2], the target named is RAF proto-oncogene serine/threonine-protein kinase (Homo sapiens, UniProt P04049). Briefly: Inhibition of c-RAF (unknown origin).
The next data set deals with Protease (Human immunodeficiency virus 1, UniProt Q9YQ12). Briefly: Inhibition of HIV-1 protease by spectrofluorometric assay.
The nature of data set [3]: Half life in plasma (unknown origin). The format is ADME, cell-free.
For another data set, the target named is DNA gyrase subunit B (Escherichia coli, UniProt P0AES6). Description: Inhibition of Escherichia coli DNA gyrase B incubated for 60 mins by malachite green dye based spectrometric analysis.
Data set [4] in a line: Inhibition of Escherichia coli DNA topoisomerase 4 incubated for 60 mins by malachite green dye based spectrometric analysis.
Data set [5] concerns the target Metabotropic glutamate receptor 3 (Homo sapiens, UniProt Q14832). Briefly: Inhibition of mGluR3 (unknown origin).
Data set [6] deals with Metabotropic glutamate receptor 7 (Homo sapiens, UniProt Q14831). Briefly: Inhibition of mGluR7 (unknown origin).
The target of data set [7] is Metabotropic glutamate receptor 1 (Homo sapiens, UniProt Q13255). Briefly: Inhibition of mGluR1 (unknown origin).
In data set [8] the target is Metabotropic glutamate receptor 4 (Homo sapiens, UniProt Q14833). Description: Inhibition of mGluR4 (unknown origin).
Data set [9] concerns the target Metabotropic glutamate receptor 8 (Homo sapiens, UniProt O00222). Briefly: Inhibition of mGluR8 (unknown origin).
Data set [10] has as its target Metabotropic glutamate receptor 5 (Rattus norvegicus, UniProt P31424). Briefly: Inhibition of rat mGluR5 expressed in HEK293A cells preincubated for 140 secs followed by EC20 glutamate stimulation for 74 secs and subsequent EC80 glutamate addition and measured up to 40 secs by Fluo-4-AM dye based fluorescence assay. The data set is classed as cell-based.
The target of data set [11] is Metabotropic glutamate receptor 2 (Homo sapiens, UniProt Q14416). Briefly: Inhibition of mGluR2 (unknown origin).
The subject of data set [12] is Plasmodium falciparum. Description: Antimalarial activity against Plasmodium falciparum 3D7 incubated for 48 hrs by [3H]-hypoxanthine incorporation assay. The format is functional, organism-based.
The subject of data set [13] is Plasmodium falciparum. Description: Antimalarial activity against Plasmodium falciparum Dd2 incubated for 48 hrs by [3H]-hypoxanthine incorporation assay. The format is functional, organism-based.
The next data set relates to Plasmodium berghei. Description: Antiparasitic activity against blood stage Plasmodium berghei ANKA infected in ARC mouse assessed as suppression of parasitemia at 32 mg/kg, sc administered twice daily with 6 hrs apart for 4 consecutive days by Giemsa staining based microscopic analysis relative to control.
Data set [14] can be described thus: Half life in schizophrenic patient at 1.5 to 12.5 mg/day. The settings on record: human, in vivo. The format is ADME.

Metabotropic glutamate receptor 8, sequence (O00222 whole entry): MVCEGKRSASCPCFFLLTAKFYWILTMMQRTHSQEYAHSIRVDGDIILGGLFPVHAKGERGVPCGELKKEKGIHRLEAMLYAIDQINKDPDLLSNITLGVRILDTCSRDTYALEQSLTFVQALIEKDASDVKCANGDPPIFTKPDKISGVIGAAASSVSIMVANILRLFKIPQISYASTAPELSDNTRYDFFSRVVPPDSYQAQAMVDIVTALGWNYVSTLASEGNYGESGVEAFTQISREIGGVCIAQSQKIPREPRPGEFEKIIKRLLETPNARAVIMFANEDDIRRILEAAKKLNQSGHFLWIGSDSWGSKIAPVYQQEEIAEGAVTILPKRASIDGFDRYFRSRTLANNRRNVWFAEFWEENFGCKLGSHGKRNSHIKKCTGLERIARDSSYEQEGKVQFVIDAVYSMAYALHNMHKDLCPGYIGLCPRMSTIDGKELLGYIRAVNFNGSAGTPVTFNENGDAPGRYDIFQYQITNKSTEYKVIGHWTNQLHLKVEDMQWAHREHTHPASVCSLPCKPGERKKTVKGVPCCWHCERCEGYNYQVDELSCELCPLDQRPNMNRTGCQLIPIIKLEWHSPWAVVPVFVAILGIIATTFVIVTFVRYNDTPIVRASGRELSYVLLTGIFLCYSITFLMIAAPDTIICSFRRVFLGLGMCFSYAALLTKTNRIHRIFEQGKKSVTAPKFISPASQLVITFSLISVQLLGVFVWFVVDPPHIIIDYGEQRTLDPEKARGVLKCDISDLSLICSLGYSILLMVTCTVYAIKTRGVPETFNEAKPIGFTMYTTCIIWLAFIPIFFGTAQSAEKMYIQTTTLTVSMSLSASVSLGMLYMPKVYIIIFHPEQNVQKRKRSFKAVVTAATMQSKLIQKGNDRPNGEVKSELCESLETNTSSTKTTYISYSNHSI
RAF proto-oncogene serine/threonine-protein kinase, sequence (P04049 whole entry): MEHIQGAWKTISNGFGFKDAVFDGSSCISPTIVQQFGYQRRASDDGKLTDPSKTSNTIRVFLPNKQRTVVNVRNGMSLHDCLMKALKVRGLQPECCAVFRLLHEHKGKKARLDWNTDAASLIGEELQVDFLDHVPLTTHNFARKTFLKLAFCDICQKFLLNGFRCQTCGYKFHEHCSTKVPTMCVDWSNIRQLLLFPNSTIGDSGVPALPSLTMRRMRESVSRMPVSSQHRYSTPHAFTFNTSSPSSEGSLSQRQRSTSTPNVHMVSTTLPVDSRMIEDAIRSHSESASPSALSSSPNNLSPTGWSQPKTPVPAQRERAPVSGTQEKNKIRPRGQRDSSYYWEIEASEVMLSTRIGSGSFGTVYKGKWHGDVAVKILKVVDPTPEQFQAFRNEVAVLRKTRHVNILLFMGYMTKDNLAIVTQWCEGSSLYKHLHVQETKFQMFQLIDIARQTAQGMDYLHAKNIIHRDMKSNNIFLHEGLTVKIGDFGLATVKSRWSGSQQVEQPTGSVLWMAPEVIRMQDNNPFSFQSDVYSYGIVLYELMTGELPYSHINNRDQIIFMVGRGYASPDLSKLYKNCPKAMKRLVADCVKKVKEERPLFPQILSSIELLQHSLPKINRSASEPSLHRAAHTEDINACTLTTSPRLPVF
Metabotropic glutamate receptor 2, sequence (Q14416 whole entry): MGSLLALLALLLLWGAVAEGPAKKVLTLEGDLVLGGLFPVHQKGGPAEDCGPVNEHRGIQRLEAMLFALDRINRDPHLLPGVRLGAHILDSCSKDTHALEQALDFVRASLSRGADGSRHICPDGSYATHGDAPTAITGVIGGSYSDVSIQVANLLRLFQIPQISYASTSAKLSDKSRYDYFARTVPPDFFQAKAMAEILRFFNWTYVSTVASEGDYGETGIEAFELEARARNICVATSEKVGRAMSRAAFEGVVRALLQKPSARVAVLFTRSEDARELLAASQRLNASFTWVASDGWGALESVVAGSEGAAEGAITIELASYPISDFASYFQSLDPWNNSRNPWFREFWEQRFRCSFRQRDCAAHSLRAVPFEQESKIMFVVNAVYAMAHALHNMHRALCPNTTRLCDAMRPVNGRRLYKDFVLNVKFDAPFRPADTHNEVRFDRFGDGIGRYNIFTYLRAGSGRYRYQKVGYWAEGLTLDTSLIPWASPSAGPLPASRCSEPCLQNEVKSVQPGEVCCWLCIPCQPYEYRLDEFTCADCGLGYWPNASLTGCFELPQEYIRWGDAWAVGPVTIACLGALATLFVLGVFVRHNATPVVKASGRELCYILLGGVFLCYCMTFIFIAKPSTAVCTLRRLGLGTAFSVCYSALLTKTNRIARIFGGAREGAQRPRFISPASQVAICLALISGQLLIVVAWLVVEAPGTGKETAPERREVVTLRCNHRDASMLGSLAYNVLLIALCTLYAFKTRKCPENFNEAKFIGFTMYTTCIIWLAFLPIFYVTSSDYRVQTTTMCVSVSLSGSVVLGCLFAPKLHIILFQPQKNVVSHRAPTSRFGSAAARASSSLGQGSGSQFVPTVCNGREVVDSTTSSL
Metabotropic glutamate receptor 3, sequence (Q14832 whole entry): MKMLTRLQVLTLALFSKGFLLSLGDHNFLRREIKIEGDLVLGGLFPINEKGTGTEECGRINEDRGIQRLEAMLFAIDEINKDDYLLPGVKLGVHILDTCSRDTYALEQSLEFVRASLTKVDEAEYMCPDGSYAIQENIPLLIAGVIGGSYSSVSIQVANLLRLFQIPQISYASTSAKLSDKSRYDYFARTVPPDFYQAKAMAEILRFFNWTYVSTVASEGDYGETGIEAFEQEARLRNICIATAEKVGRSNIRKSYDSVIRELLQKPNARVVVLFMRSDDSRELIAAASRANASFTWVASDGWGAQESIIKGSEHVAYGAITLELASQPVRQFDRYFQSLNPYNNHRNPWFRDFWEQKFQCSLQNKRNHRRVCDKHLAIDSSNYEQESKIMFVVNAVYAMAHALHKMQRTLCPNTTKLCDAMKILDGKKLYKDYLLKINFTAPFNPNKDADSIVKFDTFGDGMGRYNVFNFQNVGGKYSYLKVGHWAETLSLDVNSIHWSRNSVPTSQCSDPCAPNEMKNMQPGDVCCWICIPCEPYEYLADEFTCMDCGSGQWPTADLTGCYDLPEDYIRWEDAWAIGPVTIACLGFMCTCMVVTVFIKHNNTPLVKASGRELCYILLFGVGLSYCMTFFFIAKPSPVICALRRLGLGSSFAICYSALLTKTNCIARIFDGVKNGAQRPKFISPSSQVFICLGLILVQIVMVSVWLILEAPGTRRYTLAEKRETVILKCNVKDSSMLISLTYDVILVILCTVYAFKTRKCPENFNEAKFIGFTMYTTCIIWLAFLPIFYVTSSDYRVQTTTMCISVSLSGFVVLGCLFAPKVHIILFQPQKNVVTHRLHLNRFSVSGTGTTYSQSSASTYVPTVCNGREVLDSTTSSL
Protease, sequence (Q9YQ12 whole entry): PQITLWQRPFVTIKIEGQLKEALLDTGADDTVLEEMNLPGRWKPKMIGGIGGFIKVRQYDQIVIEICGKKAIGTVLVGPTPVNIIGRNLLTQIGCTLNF
Metabotropic glutamate receptor 5, sequence (P31424 whole entry): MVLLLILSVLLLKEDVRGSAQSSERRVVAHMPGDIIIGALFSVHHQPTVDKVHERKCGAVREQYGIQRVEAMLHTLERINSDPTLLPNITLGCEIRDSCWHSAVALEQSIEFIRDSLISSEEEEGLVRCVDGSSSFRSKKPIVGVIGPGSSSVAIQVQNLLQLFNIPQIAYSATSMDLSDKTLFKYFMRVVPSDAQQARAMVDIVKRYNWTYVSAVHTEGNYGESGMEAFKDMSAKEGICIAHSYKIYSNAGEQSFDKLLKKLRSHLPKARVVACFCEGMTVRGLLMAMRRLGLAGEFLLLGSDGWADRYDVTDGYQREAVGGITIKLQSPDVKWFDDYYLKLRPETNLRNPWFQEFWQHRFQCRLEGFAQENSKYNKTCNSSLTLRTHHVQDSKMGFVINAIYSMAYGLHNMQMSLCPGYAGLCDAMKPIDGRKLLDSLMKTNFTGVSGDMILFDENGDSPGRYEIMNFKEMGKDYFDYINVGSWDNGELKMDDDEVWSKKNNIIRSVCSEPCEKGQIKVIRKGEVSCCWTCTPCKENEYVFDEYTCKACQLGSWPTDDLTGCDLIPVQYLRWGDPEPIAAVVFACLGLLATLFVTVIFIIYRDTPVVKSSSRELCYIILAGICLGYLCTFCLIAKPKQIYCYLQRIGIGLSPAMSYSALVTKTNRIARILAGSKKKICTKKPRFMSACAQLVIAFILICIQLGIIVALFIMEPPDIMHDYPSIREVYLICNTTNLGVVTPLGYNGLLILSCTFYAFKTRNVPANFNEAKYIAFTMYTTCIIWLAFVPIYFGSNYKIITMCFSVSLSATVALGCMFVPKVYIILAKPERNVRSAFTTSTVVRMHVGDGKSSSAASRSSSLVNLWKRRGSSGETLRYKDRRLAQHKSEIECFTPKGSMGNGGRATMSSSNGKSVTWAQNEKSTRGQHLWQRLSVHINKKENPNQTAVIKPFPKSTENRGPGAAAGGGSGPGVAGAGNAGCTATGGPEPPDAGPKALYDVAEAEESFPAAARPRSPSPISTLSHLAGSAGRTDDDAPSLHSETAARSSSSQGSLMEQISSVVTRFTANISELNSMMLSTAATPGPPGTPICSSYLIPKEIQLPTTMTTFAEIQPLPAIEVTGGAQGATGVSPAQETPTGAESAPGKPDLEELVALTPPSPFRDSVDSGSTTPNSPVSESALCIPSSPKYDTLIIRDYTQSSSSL

Regarding `N#Cc1cc(O)ccc1-c1ccc(NC(=O)Nc2ccc(Cl)c(C(F)(F)F)c2)cc1`, the pIC50 is 5.72 with HT-29 and 5.82 in the data set with LoVo.
With `CNC(=O)c1cc(Oc2cccc3nc(NC(=O)Nc4ccc(Cl)c(C(F)(F)F)c4)ccc23)ccn1`, the negative-log IC50 (pIC50) was 6.50 in [1] and 7.21 in [2].
On Protease, `CC(C)CN(C[C@@H](O)[C@H](Cc1ccccc1)NC(=O)[C@H](CC(N)=O)NC(=O)c1ccc2ccccc2n1)C(=O)NC(C)(C)C` had a negative-log IC50 (pIC50) of 8.20.
Compound `CC(C)c1nc(CN(C)C(=O)N[C@H](C(=O)N[C@@H](Cc2ccccc2)C[C@H](O)[C@H](Cc2ccccc2)NC(=O)OCc2cncs2)C(C)C)cs1` [RITONAVIR] showed a half-life in data set [3] of 72 min.
For the compound `CCNC(=O)Nc1nc2cc(-c3cnc(N4CCC(C(=O)O)CC4)nc3)cc(-c3ccccn3)c2s1`, the negative-log IC50 (pIC50) against DNA gyrase subunit B is over 6.70. This compound yielded a 50% inhibitory concentration (IC50) in data set [4] of under 0.1 µg/mL.
Regarding `N#Cc1cc(F)cc(NC(=O)Nc2ccc(Cl)cn2)c1`, the pIC50 in data set [5] is under 4.52; in data set [6], under 4.52; in data set [7], under 4.52; in data set [8], under 4.52; in [9], under 4.52; in [10], 7.89. Besides, the pIC50 in data set [11] was under 4.52.
With `CCCCNC(=O)NCCc1c[nH]c2c1C(=O)C1=C(NC=CS1(=O)=O)C2=O`, the pIC50 was 6.19 with Plasmodium falciparum [12] and 6.28 with Plasmodium falciparum [13]. Further, the Activity in the data set with Plasmodium berghei is on record as 26%.
The compound `CN(C)C(=O)N[C@H]1CC[C@H](CCN2CCN(c3cccc(Cl)c3Cl)CC2)CC1` [CARIPRAZINE] had a half-life in data set [14] of 2 to 5 days.

For orientation: pIC50 means the IC50 on a negative log10 scale, so that one unit is a factor of ten. One may read the half-life as the time in which the quantity being followed falls by half. A word on the IC50: it is the concentration needed to halve the response being measured. Lower therefore signals higher potency.
